{"source": "patent US20190300824A1", "about": "“BACTERIAL SPORE COMPOSITIONS FOR […]” (priority 2014, published 2019)", "test_system": "Eimeria maxima and Clostridium perfringens", "type": "in vivo, Cobb 500 Chicks (Gallus gallus domesticus)", "conditions": "in words", "note": "Bridge positions count the residues as written; N and C are the ends. Square brackets hold non-standard residues; d marks the D form. Peptide text beside a SMILES is read from it. * marks the point of attachment. Ileψ(thiazoline)Cys = CC[C@H](C)[C@H](N)C1=N[C@H](C(=O)*)CS1; dOrn = NCCC[C@@H](N)C(=O)O", "data": [{"smiles": "CC[C@H](C)[C@H](N)C1=N[C@H](C(=O)N[C@@H](CC(C)C)C(=O)N[C@H](CCC(=O)O)C(=O)N[C@H](C(=O)N[C@H]2CCCCNC(=O)[C@H](CC(N)=O)NC(=O)[C@@H](CC(=O)O)NC(=O)[C@H](Cc3cnc[nH]3)NC(=O)[C@@H](Cc3ccccc3)NC(=O)[C@H]([C@@H](C)CC)NC(=O)[C@@H](CCCN)NC2=O)[C@@H](C)CC)CS1", "note": "[Treatment Group 5, Bacitracin] ({Ileψ(thiazoline)Cys}-L[dE]IK[dOrn]I[dF]H[dD]N; lactam 4-C)", "values": [{"measurement": "weight gain over the infected negative control", "result": "significant increase in weight gain"}]}]}
